Converted amounts (≈) assume the structure as drawn.
How the values were obtained:
[1] = Solubility study of HSP (shake flask); format: physicochemical; settings: for Hesperidin Solubility: shaken 24 h, room temperature
Protocol: The solubility of HSP was determined by adopting the standard shake flask technique according to the method described by Majumdar and colleagues. The screening of the solution was performed by evaluating the solubility of HSP (10% (w/v) with respect to pH solution. To perform this experiment, 10% w/v of HSP was added to a glass vial containing 5 mL of the chosen solvent and tightly sealed. To ensure homogeneous mixing, the samples were shaken continuously for 24 h in a water bath at room temperature and 50 rpm. After 24 h, samples were centrifuged at 4500 rpm and HSP was assayed in the supernatant. Solubility was determined in water and in buffers with pH values ranging from 1.2 to 6.8. In addition, the effect of XA-stabilized AuNPs on the solubility of hesperidin was examined to determine by how much the solubility was increased.

[2] = test system: Proteus vulgaris (MTCC 7299); experiment: Minimum inhibitory concentration (microtiter plate dilution); format: cell-based; settings: P. vulgaris MTCC 7299, 37 °C, 24 h, absorbance 640 nm; method: concentration that inhibited 50% of bacterial growth
Protocol: Briefly, stock solutions of XA@AuNPs gel and HSP@XA@AuNPs gel were prepared in water to ensure complete solubilization at a concentration of 1 mg/mL. A total of 100 µL of nutrient broth and Sabouraud dextrose broth was added to wells 1 to 10. XA@AuNPs gel and HSP@XA@AuNPs gel samples (100 µL) were added to the first well. The solution was serially diluted from well 1 to well 10, while 100 µL from well 10 was discarded. Then 100 µL of the bacterial suspension was added to all dilution wells from well 1 to well 10. The overnight bacterial suspension (100 µL) was added to well 11, and 100 µL of sterile broth was added to serve as a positive control or growth control, while 200 µL of sterile nutrient broth and Sabouraud dextrose broth in well 12 served as a negative control or sterility control. The plate was incubated at 37 °C for 24 h. After incubation, absorbance in each well was measured using an ELISA reader (Erba) at a wavelength of 640 nm. The procedure described above was performed for each microbial strain. The concentration of the sample and standard that inhibited 50% of bacterial growth was determined for all microorganisms. All tests were performed in triplicate to minimize error.

COc1ccc([C@@H]2CC(=O)c3c(O)cc(O[C@@H]4O[C@H](CO[C@@H]5O[C@@H](C)[C@H](O)[C@@H](O)[C@H]5O)[C@@H](O)[C@H](O)[C@H]4O)cc3O2)cc1O [HSP, hesperidin]
Hesperidin Solubility ([1]; Water): 4.09 ± 0.20 µg/mL | Hesperidin Solubility ([1]; XA-stabilized AuNPs as solvent): 62.23 ± 3.1 µg/mL | Solubility increase by addition of XA-stabilized AuNPs compared to water ([1]; XA-stabilized AuNPs vs water): 15 fold | Hesperidin Solubility ([1]; pH 1.2 buffer): 2.44 ± 0.12 µg/mL | Hesperidin Solubility ([1]; pH 5.0 buffer): 3.42 ± 0.17 µg/mL | Hesperidin Solubility ([1]; pH 6.8 buffer): 6.19 ± 0.30 µg/mL | MIC [2]: 9.2 µg/mL (≈ 15.1 µM)
